According to paper PMC7559897, “Designed Antimicrobial Peptides Against Trauma-Related Cutaneous Invasive Fungal Wound Infections” (Journal of Fungi, 2020):
Values after ≈ are worked out from the molar mass of the structure shown. Square brackets hold non-standard residues; d marks the D form. Peptide text beside a SMILES is read from it. Orn = NCCC[C@H](N)C(=O)O

What was measured:
[1] = test system: K. pneumonia 6069; format: cell-based, Klebsiella pneumoniae; settings: 24 h
Method: (§1) Assays were performed by Trideum Biosciences (Frederick, MD, USA). Isolates were thawed from −80 °C storage and sub-cultured on trypticase soy agar plates at 37 °C prior to experimentation. A single colony was aseptically picked from the agar plate and released in 30 mL trypticase soy broth and incubated overnight at 37 °C incubator. Following which the bacterial culture was diluted to approximately 10^6 colony forming units (CFU)/mL using 2X cation adjusted Mueller–Hinton broth and added to the dAMP solutions (0, 2, 4, 8, 16, 32, 64, and 128 μg/mL) which had been formulated in water at 256 μg/mL and then serially diluted in media on 96-well pates. For fungal evaluation, potato dextrose broth and potato dextrose agar plates were used. The treated cultures were then incubated for 24 h at 37 °C and pathogen growth was measured by absorbance at 600 nm. Four replicas were included for each dAMP concentration. Each MIC was assigned to the lowest test agent concentration resulting in at least three out of four wells showing no growth based on an optical density (OD) reading of <0.1.

[2] = test system: K. pneumonia ATCC 10031; format: cell-based, Klebsiella pneumoniae; settings: ATCC 10031, 24 h
Method: as §1

[3] = test system: vulvovaginal candidiasis infection; settings: rodent vulvovaginal candidiasis, after three days of daily treatment; cited from earlier work
Text: The dAMPs RP504, RP554 and RP557 were thus tested for their ability to treat a rodent vulvovaginal candidiasis infection. […] A daily dose with a 2% concentration lowered the CFU/sample by more than 4 logs compared to the con ...

[4] = test system: A. baumannii 6838; format: cell-based, Acinetobacter baumannii; settings: 6838, 24 h
Method: as §1

[5] = test system: A. baumannii 6043; format: cell-based, Acinetobacter baumannii; settings: 6043, 24 h
Method: as §1

[6] = test system: A. baumannii ATCC 17978; format: cell-based, Acinetobacter baumannii; settings: ATCC 17978, 24 h
Method: as §1

[7] = test system: Aspergillus flavus MYA-3651; format: cell-based; settings: 24 h
Method: as §1

[8] = test system: Candida krusei Y-27825; format: cell-based; settings: Y-27825, 24 h
Method: as §1

[9] = test system: Candida albicans Y-326; format: cell-based; settings: Y-326, 24 h
Method: as §1

[10] = test system: Mucor circinelloides NRRL 3631; format: cell-based; settings: NRRL 3631, 24 h
Method: as §1

[11] = test system: Candida albicans Y-6359; format: cell-based; settings: Y-6359, 24 h
Method: as §1

[12] = test system: Candida parapsilosis Y-1761; format: cell-based; settings: Y-1761, 24 h
Method: as §1

[13] = test system: Fusarium solani NRRL 28548; format: cell-based; settings: NRRL 28548, 24 h
Method: as §1

[14] = test system: Aspergillus fumigatus 9648; format: cell-based; settings: 9648, 24 h
Method: as §1

[15] = test system: E. cloacae 6054; format: cell-based; settings: 6054, 24 h
Method: as §1

[16] = test system: S. epidermis ATCC 51625; format: cell-based; settings: ATCC 51625, 24 h
Method: as §1

[17] = test system: Absidia corymbifera NRRL 6251; format: cell-based; settings: NRRL 6251, 24 h
Method: as §1

[18] = test system: Aspergillus fumigatus 9651; format: cell-based; settings: 9651, 24 h
Method: as §1

[19] = test system: Candida krusei Y-27803; format: cell-based; settings: Y-27803, 24 h
Method: as §1

[20] = test system: Aspergillus flavus MYA-1004; format: cell-based; settings: 24 h
Method: as §1

[21] = test system: E. cloacae 6053; format: cell-based; settings: 6053, 24 h
Method: as §1

[22] = test system: Candida parapsilosis Y-1763; format: cell-based; settings: Y-1763, 24 h
Method: as §1

[23] = test system: P. aeruginosa ATCC 19660; format: cell-based, Pseudomonas aeruginosa; settings: ATCC 19660, 24 h
Method: as §1

[24] = test system: P. aeruginosa 6186; format: cell-based, Pseudomonas aeruginosa; settings: 6186, 24 h
Method: as §1

[25] = test system: P. aeruginosa ATCC 27853; format: cell-based, Pseudomonas aeruginosa; settings: ATCC 27853, 24 h
Method: as §1

[26] = test system: MRSA 6381; format: cell-based, Staphylococcus aureus; settings: 6381, 24 h
Method: as §1

[27] = test system: MRSA 6313; format: cell-based, Staphylococcus aureus; settings: 6313, 24 h
Method: as §1

[28] = test system: S. aureus B-767; format: cell-based, Staphylococcus aureus; settings: B-767, 24 h
Method: as §1

[29] = test system: S. aureus 6061; format: cell-based, Staphylococcus aureus; settings: 6061, 24 h
Method: as §1

[30] = test system: MRSA ATCC 33592; format: cell-based, Staphylococcus aureus; settings: ATCC 33592, 24 h
Method: as §1

[31] = test system: P. aeruginosa 19660 (Xen5 luciferase); assay: Bioluminescent time-kill assay; format: cell-based, Pseudomonas aeruginosa; settings: 8 μg/mL; RP553 at 60 min; bioluminescence
Text: (§2) Fungal and bacterial strains were obtained from American Type Culture Collection (ATCC, Manassas, VA, USA) or the clinical isolate collection at Trideum Biosciences (Frederick, MD, USA) and are presented in Table 1 and Table 2, respectively. Bioluminescence strains of P. aeruginosa 19660, transfected with the Xen5 luciferase gene, and S. aureus ATCC R 49525TM (Wright), transfected with the Xen36 luciferase gene, were obtained from Perkin Elmer (Waltham, MA, USA).
(§3) Real-time killing of bacterial cells, P. aeruginosa or S. aureus, and mammalian cytotoxicity to assess dAMP off-target toxicity was evaluated using bioluminescent cells. The L929 fibroblast cells (ATCC, Manassas, VA, USA) were made bioluminescent by transfection with a luciferase gene. Cells (1 × 10^4 cells, 100 μL) were plated in 96-well black-walled plates and the candidate dAMPs were 2-fold serially diluted from specified concentrations in growth medium supplemented with 150 μg/mL D-luciferin. Each concentration was performed in triplicate, with the final volume being 200 μL. Imaging was performed at select times after the addition of the dAMP, and compared to concurrently run vehicle-control, using an IVIS Lumina imaging system (Caliper Life Sciences, Inc., Hopkinton, MA, USA). For imaging, the 96-well plate was positioned on the stage (12.5-cm field of view), with an open emission filter, binning of 4, and f-stop 1 and a 1-min exposure time. Monitoring bioluminescence allows assessment of the kinetics of cellular viability as there is a tight correlation between the bioluminescent signal and cell viability. Data analysis was performed using the Living Image software program (version 4.3, Caliper Life Sciences, Inc., Hopkinton, MA, USA).
(§4) Figure 3 RP553, RP556, RP557 rapidly destroy P. aeruginosa and S. aureus. The bioluminescence of viable P. aeruginosa 19,660 and S. aureus 49,525 cells was quantitated in real time with an IVIS Lumina bioimaging system. Data represent the mean ± SE of triplicate replicates from two independent experiments. For some points, the error bars are shorter than the height of the symbols.

[32] = test system: S. aureus 49525 (Xen36 luciferase); format: cell-based, Staphylococcus aureus; settings: 8 μg/mL, 60 min incubation, bioluminescence, triplicates from two independent experiments
Text: as §2, §3, §4

Compound | MIC against K. pneumonia 6069 [1] | MIC against K. pneumonia ATCC 10031 [2] | MIC against A. baumannii 6838 [4] | MIC against A. baumannii 6043 [5] | MIC against A. baumannii ATCC 17978 [6] | MIC against Aspergillus flavus MYA-3651 [7] | MIC against Candida krusei Y-27825 [8] | MIC against Candida albicans Y-326 [9] | MIC against Mucor circinelloides NRRL 3631 [10] | MIC against Candida albicans Y-6359 [11] | MIC against Candida parapsilosis Y-1761 [12] | MIC against Fusarium solani NRRL 28548 [13] | MIC against Aspergillus fumigatus 9648 [14] | MIC against E. cloacae 6054 [15] | MIC against S. epidermis ATCC 51625 [16] | MIC against Absidia corymbifera NRRL 6251 [17] | MIC against Aspergillus fumigatus 9651 [18] | MIC against Candida krusei Y-27803 [19] | MIC against Aspergillus flavus MYA-1004 [20] | MIC against E. cloacae 6053 [21] | also measured
CC[C@H](C)[C@H](NC(=O)[C@H](CCCN)NC(=O)[C@H](C)NC(=O)[C@H](CCCN)NC(=O)[C@H](CC(C)C)NC(=O)[C@H](CCCN)NC(=O)[C@@H](NC(=O)[C@H](CCCN)NC(=O)[C@@H](NC(=O)[C@H](CCCN)NC(=O)[C@H](C)NC(=O)[C@H](CCCN)NC(=O)[C@H](CC(C)C)NC(=O)[C@H](CCCN)NC(=O)[C@@H](N)Cc1ccccc1)[C@@H](C)CC)C(C)C)C(=O)N[C@@H](CCCN)C(=O)N[C@@H](CC(C)C)C(N)=O [RP554] (H-F[Orn]L[Orn]A[Orn]I[Orn]V[Orn]L[Orn]A[Orn]I[Orn]L-NH2) | 16 µg/mL (≈ 8.49 µM) | 8 µg/mL (≈ 4.25 µM) | 4 µg/mL (≈ 2.12 µM) | 8 µg/mL (≈ 4.25 µM) | 4 µg/mL (≈ 2.12 µM) | 32 µg/mL (≈ 17 µM) | 16 µg/mL (≈ 8.49 µM) | 32 µg/mL (≈ 17 µM) | 32 µg/mL (≈ 17 µM) | 32 µg/mL (≈ 17 µM) | 16 µg/mL (≈ 8.49 µM) | 2 µg/mL (≈ 1.06 µM) | 64 µg/mL (≈ 34 µM) | 2 µg/mL (≈ 1.06 µM) | 2 µg/mL (≈ 1.06 µM) | 4 µg/mL (≈ 2.12 µM) | 32 µg/mL (≈ 17 µM) | 16 µg/mL (≈ 8.49 µM) | 64 µg/mL (≈ 34 µM) | 4 µg/mL (≈ 2.12 µM) | reduction of CFU/tissue sample [3]: ≥ 2.5 logs; MIC against Candida parapsilosis Y-1763 [22]: 8 µg/mL (≈ 4.25 µM); MIC against P. aeruginosa ATCC 19660 [23]: 8 µg/mL (≈ 4.25 µM); MIC against P. aeruginosa 6186 [24]: 8 µg/mL (≈ 4.25 µM); MIC against P. aeruginosa ATCC 27853 [25]: 4 µg/mL (≈ 2.12 µM); MIC against MRSA 6381 [26]: 32 µg/mL (≈ 17 µM); MIC against MRSA 6313 [27]: 32 µg/mL (≈ 17 µM); MIC against S. aureus B-767 [28]: 4 µg/mL (≈ 2.12 µM); MIC against S. aureus 6061 [29]: 32 µg/mL (≈ 17 µM); MIC against MRSA ATCC 33592 [30]: 32 µg/mL (≈ 17 µM)
CC[C@H](C)[C@H](NC(=O)[C@H](CCCCN)NC(=O)[C@H](CC(C)C)NC(=O)[C@H](CCCN)NC(=O)[C@H](CC(C)C)NC(=O)[C@H](CCCNC(=N)N)NC(=O)[C@H](C)NC(=O)[C@H](CCCNC(=N)N)NC(=O)[C@@H](NC(=O)[C@H](CCCN)NC(=O)[C@H](Cc1ccccc1)NC(=O)[C@H](CCCNC(=N)N)NC(=O)[C@H](C)NC(=O)[C@H](CCCCN)NC(=O)[C@@H](NC(=O)[C@H](CCCN)NC(=O)[C@@H](N)Cc1ccccc1)[C@@H](C)CC)C(C)C)C(N)=O [RP553] (H-F[Orn]IKARF[Orn]VRARL[Orn]LKI-NH2) | 4 µg/mL (≈ 1.93 µM) | 4 µg/mL (≈ 1.93 µM) | 8 µg/mL (≈ 3.86 µM) | 16 µg/mL (≈ 7.72 µM) | 4 µg/mL (≈ 1.93 µM) | 128 µg/mL (≈ 61.8 µM) | 32 µg/mL (≈ 15.4 µM) | 64 µg/mL (≈ 30.9 µM) | 64 µg/mL (≈ 30.9 µM) | 64 µg/mL (≈ 30.9 µM) | 64 µg/mL (≈ 30.9 µM) | 2 µg/mL (≈ 0.965 µM) | 128 µg/mL (≈ 61.8 µM) | 2 µg/mL (≈ 0.965 µM) | 2 µg/mL (≈ 0.965 µM) | 2 µg/mL (≈ 0.965 µM) | 64 µg/mL (≈ 30.9 µM) | 32 µg/mL (≈ 15.4 µM) | 128 µg/mL (≈ 61.8 µM) | 4 µg/mL (≈ 1.93 µM) | P. aeruginosa killing (in words) [31]: nearly all; MIC against Candida parapsilosis Y-1763 [22]: 32 µg/mL (≈ 15.4 µM); MIC against P. aeruginosa ATCC 19660 [23]: 8 µg/mL (≈ 3.86 µM); MIC against P. aeruginosa 6186 [24]: 8 µg/mL (≈ 3.86 µM); MIC against P. aeruginosa ATCC 27853 [25]: 4 µg/mL (≈ 1.93 µM); MIC against MRSA 6381 [26]: 8 µg/mL (≈ 3.86 µM); MIC against MRSA 6313 [27]: 4 µg/mL (≈ 1.93 µM); MIC against S. aureus B-767 [28]: 4 µg/mL (≈ 1.93 µM); MIC against S. aureus 6061 [29]: 8 µg/mL (≈ 3.86 µM); MIC against MRSA ATCC 33592 [30]: 4 µg/mL (≈ 1.93 µM); S. aureus killing [32]: 14%
